Reference: ChEMBL document CHEMBL1201862, “PubChem BioAssay data set” (2004)
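Where inhibition never reached the appropriate level, the endpoint shown equals the highest concentration tested. Otherwise, values were interpolated linearly from a five-concentration, 48-hour dose response in 96-well plates. Abbreviation: GI50, concentration required for 50% inhibition of growth.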 Calls of active or inactive are those of the source. Cut-off read from the data, not from the text of the source: active = GI50 up to about 1.1 µM and inactive = higher.

Experiments:
Assay in all cases: growth of human tumour cells (NCI), 48 h
[1] = tested on: BT-549
[2] = tested on: T47D
[3] = tested on: DMS-114
[4] = tested on: HOP-18
[5] = tested on: KM-20L2
[6] = tested on: M19-MEL
[7] = tested on: SNB-78
[8] = tested on: XF498

What does the source list for O=C(O)c1ccccc1-c1ccccc1C(=O)Nc1ccc2c(c1)Cc1cc(F)ccc1-2?
GI50 [1]: 18.9 µM (inactive); GI50 [2]: 22.1 µM (inactive)

What does the source list for Cc1ccc(/C=C/C(=O)c2sc(-n3nc(-c4ccccc4)cc3-c3ccccc3)nc2C)cc1?
GI50 [3]: 10.6 µM (inactive); GI50 [4]: > 100 µM (inactive); GI50 [5]: > 100 µM (inactive); GI50 [6]: > 100 µM (inactive); GI50 [7]: > 100 µM (inactive)

What does the source list for CC(C)N1CCN(c2ccncc2S(=O)(=O)N2CCCCC2)CC1?
GI50 [1]: > 100 µM (inactive); GI50 [2]: > 100 µM (inactive)

For O=S1(=O)CCN(c2ccccc2CC(c2c[nH]c3ccccc23)c2c[nH]c3ccccc23)CC1, which GI50 [1] is on record?
The GI50 was 11.9 µM (inactive).

What about the GI50 [3] of the same molecule?
The GI50 was 5.3 µM (inactive).

And the GI50 [4]?
The GI50 was 14.4 µM (inactive).

What about the GI50 [5] of the same molecule?
The GI50 was 8.85 µM (inactive).

And the GI50 [6]?
The GI50 was 5.74 µM (inactive).

What about the GI50 [7] of the same molecule?
Its GI50 is 30.1 µM (inactive).

And the GI50 [2]?
Its GI50 is 6.35 µM (inactive).

For C=CC(=O)N1C/C(=C\c2ccc([N+](=O)[O-])cc2)C(=O)/C(=C/c2ccc([N+](=O)[O-])cc2)C1, which GI50 [1] is on record?
The GI50 was 0.194 µM (active).

What about the GI50 [2] of the same molecule?
Its GI50 is 0.419 µM (active).

With Nc1ccn(C2OC(COC(=O)C34CC5CC(CC(C5)C3)C4)C(O)C2O)c(=O)n1 (configuration not stated) as the molecule, how does the GI50 [1] read?
Its GI50 is > 100 µM (inactive).

What about the GI50 [3] of the same molecule?
The GI50 was 12.4 µM (inactive).

What about the GI50 [4] of the same molecule?
The GI50 was > 100 µM (inactive).

And the GI50 [5]?
Its GI50 is > 100 µM (inactive).

And the GI50 [6]?
Its GI50 is > 100 µM (inactive).

And the GI50 [7]?
The GI50 was > 100 µM (inactive).

And the GI50 [2]?
Its GI50 is > 100 µM (inactive).

Which results are given for O=C(NCCOC(=O)CCCCCCCCC(=O)OCCNC(=O)NC(=O)c1cn(Cc2ccccc2)c(=O)[nH]c1=O)NC(=O)c1cn(Cc2ccccc2)c(=O)[nH]c1=O?
GI50 [3]: > 100 µM (inactive); GI50 [5]: > 100 µM (inactive); GI50 [6]: > 100 µM (inactive); GI50 [7]: > 100 µM (inactive); GI50 [8]: > 100 µM (inactive)

For CCCCCCCCCCCCCCCCCCNC(=S)N/C=C1/C(=O)C=C(C)OC1=O, which GI50 [1] is on record?
The GI50 was 19.1 µM (inactive).

And the GI50 [2]?
Its GI50 is 31 µM (inactive).

Which results are given for COc1cc(C2C(C#N)=C(N)OC3=C2CCS(=O)(=O)c2ccc(C)cc23)cc(OC)c1OC (configuration not stated)?
GI50 [1]: > 100 µM (inactive); GI50 [2]: > 100 µM (inactive)

Cc1ccc(NC(=O)c2cc3cc(/N=N/c4ccc(Br)cc4)ccc3oc2=O)cc1 was tested. Which GI50 [3] did it give?
The GI50 was 37 µM (inactive).

And the GI50 [4]?
The GI50 was < 0.01 µM (active).

And the GI50 [7]?
The GI50 was > 100 µM (inactive).

What about the GI50 [8] of the same molecule?
The GI50 was > 100 µM (inactive).

Which GI50 [1] does the source give for CSC1NC(c2ccc(Cl)cc2)=C(C#N)C(=O)N1C1OCC(OC(C)=O)C(OC(C)=O)C1OC(C)=O (configuration not stated) here?
Its GI50 is > 100 µM (inactive).

Which results are given for O=C1C(=O)N(c2ccc(Cl)cc2Cl)C(=O)C(=O)C1c1nc2ccccc2s1?
GI50 [3]: > 72.4 µM (inactive); GI50 [4]: > 100 µM (inactive); GI50 [5]: > 100 µM (inactive); GI50 [6]: > 100 µM (inactive); GI50 [8]: > 55 µM (inactive)

Which GI50 [1] does the source give for COc1c(C(=O)CC2c3c(cc4oc(C)cc(=O)c4c3OC)OC(=N)C2c2nc3ccccc3[nH]2)c(O)c(OC)c2occc12 (configuration not stated) here?
Its GI50 is > 100 µM (inactive).

What about the GI50 [2] of the same molecule?
The GI50 was > 100 µM (inactive).

What does the source list for Nc1nc2cc(Cl)ccc2n1N?
GI50 [1]: 45.5 µM (inactive); GI50 [2]: > 100 µM (inactive)

For CC1C(c2ccc(Cl)cc2)c2cc3c(cc2OC1N1CCOCC1)OCO3 (configuration not stated), which GI50 [2] is on record?
The GI50 was 32.4 µM (inactive).

For O=C(O)c1cccc(CN2CCCCC2)c1, which GI50 [1] is on record?
Its GI50 is > 100 µM (inactive).

And the GI50 [2]?
The GI50 was > 100 µM (inactive).

How did the GI50 [1] turn out when COc1ccc2nc(-c3ccc(O)cc3)cn2c1 was run?
The GI50 was > 100 µM (inactive).

What about the GI50 [2] of the same molecule?
The GI50 was 89.9 µM (inactive).

How did the GI50 [1] turn out when O=c1[nH]cc(/C=N\Nc2ccccc2)c(=O)[nH]1 was run?
Its GI50 is > 100 µM (inactive).

And the GI50 [2]?
Its GI50 is 9.23 µM (inactive).

What does the source list for N#Cc1ccccc1NC(=O)C(=O)C(C(=O)c1ccccc1-c1ccccc1)C1OC(=O)c2ccccc21 (configuration not stated)?
GI50 [3]: 15.5 µM (inactive); GI50 [5]: 20.9 µM (inactive); GI50 [6]: 14.8 µM (inactive); GI50 [7]: 11.2 µM (inactive); GI50 [8]: 16 µM (inactive)

Which GI50 [1] does the source give for O=C(OC(=C(c1ccccc1)c1ccccc1)N1CCCC1=S)C(c1ccccc1)c1ccccc1 here?
The GI50 was 5.05 µM (inactive).

What about the GI50 [2] of the same molecule?
Its GI50 is 3.58 µM (inactive).

COc1ccc2[nH]c3c(C)c4ccnc(NCCCN(C)CCCNc5ccc6ncn7c8ccccc8c(=O)c5c67)c4c(C)c3c2c1 was tested. Which GI50 [1] did it give?
Its GI50 is 1.06 µM (active).

And the GI50 [2]?
Its GI50 is 0.979 µM (active).

Which results are given for Clc1ccc(C2=C(c3ccccc3)C(c3ccc(Cl)cc3)N3C(=N[C@H]4CCCC[C@@H]43)N2)cc1 (some centres not stated)?
GI50 [1]: 14.6 µM (inactive); GI50 [2]: 15.6 µM (inactive)

N#Cc1nn(-c2ccc(Cl)cc2)c(=N)c2c(N)n3nc(-c4ccccc4)cc3nc12 was tested. Which GI50 [4] did it give?
Its GI50 is < 0.01 µM (active).

And the GI50 [5]?
Its GI50 is 1 µM (active).

What about the GI50 [7] of the same molecule?
Its GI50 is 1 µM (active).

And the GI50 [8]?
Its GI50 is 41.4 µM (inactive).

For CC(C)N(C(=O)C12C3C4C5C3C1(C#N)C5C42)C(C)C (configuration not stated), which GI50 [3] is on record?
The GI50 was > 100 µM (inactive).

And the GI50 [4]?
The GI50 was > 100 µM (inactive).

What about the GI50 [5] of the same molecule?
The GI50 was > 100 µM (inactive).

And the GI50 [6]?
Its GI50 is > 100 µM (inactive).

And the GI50 [7]?
Its GI50 is > 100 µM (inactive).

What about the GI50 [8] of the same molecule?
Its GI50 is > 100 µM (inactive).

How did the GI50 [1] turn out when Cc1ccc(-n2cnc3c(N)nc(N)nc32)cc1 was run?
The GI50 was > 100 µM (inactive).

What about the GI50 [2] of the same molecule?
The GI50 was > 100 µM (inactive).

Which results are given for COc1cc(/C=C2/C(=O)N(C(=O)OC(C)C)C(Cc3cc(OC)c(OC)c(C)c3OC)C(=O)N2Cc2ccccc2)c(OC)c(C)c1OC (configuration not stated)?
GI50 [3]: 13.6 µM (inactive); GI50 [4]: 49.5 µM (inactive); GI50 [5]: 24.8 µM (inactive); GI50 [6]: 57 µM (inactive)

With C[n+]1c2ccccc2c(/C=N\NS(=O)(=O)c2ccc(Cl)cc2)c2ccccc21 as the molecule, how does the GI50 [3] read?
The GI50 was 28.3 µM (inactive).

And the GI50 [5]?
The GI50 was 42.4 µM (inactive).

What about the GI50 [6] of the same molecule?
Its GI50 is 81.7 µM (inactive).

What about the GI50 [7] of the same molecule?
Its GI50 is > 100 µM (inactive).

What about the GI50 [8] of the same molecule?
The GI50 was 27.3 µM (inactive).
